# What was measured:
# [1] = Accelerated stability test, crystal form checked by XRPD; type: physicochemical; settings: 40 ± 2° C., relative humidity 75 ± 5%, seal
# Experimental: The crystal form of the macrocyclic compound provided by the present invention was subjected to accelerated stability test to examine stability according to China Pharmacopoeia (2020 edition) Part Four General Principles 9103. Specifically, the crystal form was placed in a sealed space at temperature of 40±2° C. and a relative humidity of 75±5% for 6 months. The sample to be tested was taken at months 1, 2, 3 and 6, and detected using X-ray Powder Diffractometer.
# [2] = Hygroscopicity test by dynamic vapor sorption (DVS); type: physicochemical; settings: for hygroscopicity characteristic: DVS, 0-80% relative humidity, China Pharmacopoeia 2020 classes; for weight change with increasing humidity (DVS): between 0-80% relative humidity
# Experimental: The crystal form and amorphous form of the macrocyclic compound provided by the present invention were evaluated for hygroscopicity, and the test was performed using a dynamic vapor sorption to obtain data. The description of the hygroscopicity characteristic and the definition of the weight gain due to hygroscopicity (as shown in Table 2) are referred to China Pharmacopoeia (2020 edition) Part Four General Principles 9103.
# The adsorption-desorption isotherm of the crystal form prepared in example 1 is shown in FIG. 5, wherein the abscissa is relative humidity and the ordinate is weight (%). […] The adsorption-desorption isotherm of the crystal form prepared in comparative example 1 is shown in FIG. 6, wherein the abscissa is relative humidity and the ordinate is weight (%).
# [3] = Pharmacokinetic test in beagle dogs, plasma concentration after oral gavage; type: in vivo; settings: dog, male beagle dogs, oral single gavage, 8 mg/kg
# Experimental: After grouped (3 Beagle dogs per group), male beagle dogs were orally administered with the crystal form of the macrocyclic compound provided by the present invention via single gavage at a dose of 8 mg/kg. The plasma was collected at 0.25 h, 0.5 h, 1.0 h, 2.0 h, 4.0 h, 6.0 h, 8.0 h, and 24 h after the administration. A standard curve with appropriate range was established based on the concentration of the tested sample to calculate the concentration of the tested sample in plasma. The quantitative analysis was carried out and the pharmacokinetic parameters were calculated for the tested sample. The results are shown in Table 5, wherein Cmax represents the peak concentration, AUC0-last represents the area below the drug-time curve, Tmax represents peak time of the drug and T1/2 represents the half-life of the drug.
# [4] = Stability test on influence factors (high temperature, high humidity, light), purity by HPLC; type: physicochemical; settings: for change of purity / impurity content during the experimental period (in words): high temperature, high humidity and light, 30 days
# Experimental: The crystal form and the amorphous form of the macrocyclic compound provided by the present invention were subjected to the stability test on influence factors according to China Pharmacopoeia (2020 edition) Part Four General Principles 9103. Specifically, the crystal form of a macrocyclic compound prepared in example 1 and the amorphous form of the macrocyclic compound prepared in comparative example 1 were placed in an open space under the respective conditions of high temperature (60±2° C.), high humidity (90%±5% RH, 25±2° C.) and light (4500±500 Lx) for 30 days to test stability. The observation period was 30 days. The tested samples were taken on days 5, 10 and 30, and analyzed for purity by high performance liquid chromatography.
# [5] = listed as comparative example 1
smiles,measurement,setting,value
"C[C@@H]1CCOc2ccc(F)cc2[C@H]2CCCN2c2ccc3ncc(C#N)c(c3n2)N1 [Example 1, (6R,16R)-9-fluoro-16-methyl-13-oxa-2,17,21,25-tetraazapentacyclo [16.6.2.0^2,6.0^7,12.0^22,26]hexacosane-1(25),7,9,11,18(26), 19,21,23-octane-19-carbonitrile]",crystal form by XRPD,[1]; month 1,Same as initial crystal form
same,crystal form by XRPD,[1]; month 2,Same as initial crystal form
same,crystal form by XRPD,[1]; month 3,Same as initial crystal form
same,crystal form by XRPD,[1]; month 6,Same as initial crystal form
same,hygroscopicity characteristic,[2]; listed as example 1,not hygroscopic
same,weight change with increasing humidity (DVS),[2]; listed as example 1,approximately 0.1%
same,AUC(0-t),[3],5.34 ± 1.07 µg·h/mL
same,Tmax,[3],1.3 ± 0.58 h
same,half-life,[3],19 ± 3.9 h
same,Cmax,[3]; read-out: C0/Cmax,0.729 ± 0.208 µg/mL
same,Sample purity (%),"[4]; High humidity (90%±5% RH, 25±2° C.), open, day 5, listed as example 1",98.8%
same,Sample purity (%),"[4]; High humidity (90%±5% RH, 25±2° C.), open, day 10, listed as example 1",98.8%
same,Sample purity (%),"[4]; High humidity (90%±5% RH, 25±2° C.), open, day 30, listed as example 1",98.8%
same,Sample purity (%),"[4]; High temperature (60±2° C.), open, day 5, listed as example 1",99.0%
same,Sample purity (%),"[4]; High temperature (60±2° C.), open, day 10, listed as example 1",98.9%
same,Sample purity (%),"[4]; High temperature (60±2° C.), open, day 30, listed as example 1",98.9%
same,Sample purity (%),"[4]; Light (4500±500 Lx), open, day 5, listed as example 1",98.9%
same,Sample purity (%),"[4]; Light (4500±500 Lx), open, day 10, listed as example 1",98.8%
same,Sample purity (%),"[4]; Light (4500±500 Lx), open, day 30, listed as example 1",98.6%
same,Sample purity (%),"[4]; day 0, listed as example 1",98.8%
same,change of purity / impurity content during the experimental period (in words),[4]; listed as example 1,increased slightly under the light condition only
"C[C@@H]1CCOc2ccc(F)cc2[C@H]2CCCN2c2ccc3ncc(C#N)c(c3n2)N1 [Comparative Example 1, (6R,16R)-9-fluoro-16-methyl-13-oxa-2,17,21,25-tetraazapentacyclo [16.6.2.0^2,6.0^7,12.0^22,26]hexacosane-1(25),7,9,11,18(26), 19,21,23-octane-19-carbonitrile]",hygroscopicity characteristic,[2]; [5],very hygroscopic (not less than 15%)
same,weight change with increasing humidity (DVS),[2]; [5],about 21.6%
same,Sample purity (%),"[4]; High humidity (90%±5% RH, 25±2° C.), open, day 5, listed as comparative example 1",97.9%
same,Sample purity (%),"[4]; High humidity (90%±5% RH, 25±2° C.), open, day 10, listed as comparative example 1",98.0%
same,Sample purity (%),"[4]; High humidity (90%±5% RH, 25±2° C.), open, day 30, listed as comparative example 1",97.7%
same,Sample purity (%),"[4]; High temperature (60±2° C.), open, day 5, listed as comparative example 1",97.6%
same,Sample purity (%),"[4]; High temperature (60±2° C.), open, day 10, listed as comparative example 1",97.1%
same,Sample purity (%),"[4]; High temperature (60±2° C.), open, day 30, listed as comparative example 1",96.9%
same,Sample purity (%),"[4]; Light (4500±500 Lx), open, day 5, listed as comparative example 1",97.4%
same,Sample purity (%),"[4]; Light (4500±500 Lx), open, day 10, listed as comparative example 1",96.8%
same,Sample purity (%),"[4]; Light (4500±500 Lx), open, day 30, listed as comparative example 1",96.4%
same,Sample purity (%),"[4]; day 0, listed as comparative example 1",98.1%
same,change of purity / impurity content during the experimental period (in words),[4]; [5],decrease in purity
